Data reported in publication PMC7170901, “Design and efficient synthesis of pyrazoline and isoxazole bridged indole C-glycoside hybrids as potential anticancer agents” (Scientific Reports, 2020).

Tested on: MDA-MB-231 (human breast cancer) cell line
Assay: MTT cell viability assay in MDA-MB-231 cells
Format: cell-based
Details: 72 h, MTT; for viability at 10 µM / viability at 25 µM / viability at 50 µM: Homo sapiens, MDA-MB-231, 72 h, read-out: Cell Viability (%) ± SD
Protocol: IC50 values were determined by plotting values of percent cell viability against concentration of each of these compounds. […] The experiments were performed in triplicates, n = 3 and ± SE value was calculated for each data point.
The human breast cancer cell line MDA-MB-231 were cultured in Dulbecco’s Modified Eagle’s Medium (DMEM) (Gibco, St. Louis, USA) supplemented with 10% heat inactivated FBS (Fetal Bovine Serum, Gibco, USA) and 1% penicillin-streptomycin (Gibco Canada) in humidified CO2 incubator at 37 °C. The cells were maintained as a monolayer in 100 mm culture plate. The cells used for each experiment were of less than 8 passage number. Sub culturing of cells was performed every third day, followed by trypsin EDTA treatment.
Cell viability assay was performed as per standard protocols. […] Ltd, India). In brief, this is a homogeneous, colorimetric method for determining the number of viable cells in proliferation, cytotoxicity or chemosensitivity assays. MTT is bio reduced by cells into a formazan product that is soluble in the tissue culture medium. […] The absorbance of the formazan product at 595 nm was measured directly from 96-well assay plates without additional processing using a multimode plate reader (Bio-Rad) (iMark, India), as absorbance is directly proportional to the number of viable cells in culture. The percentage of viable cells in each group is determined with respect to the untreated control cells.

Structure (SMILES) | Cell Viability (%) ± SD (MDA-MB-231, 10 µM, 10 µM) [%] | Cell Viability (%) ± SD (MDA-MB-231, 25 µM, 25 µM) [%] | Cell Viability (%) ± SD (MDA-MB-231, 50 µM, 50 µM) [%] | viability at 10 µM (MDA-MB-231, 10 µM) [%] | viability at 25 µM (MDA-MB-231, 25 µM) [%] | viability at 50 µM (MDA-MB-231, 50 µM) [%]
O=C(/C=C/c1c[nH]c2ccc([N+](=O)[O-])cc12)C[C@@H]1O[C@H](CO)[C@@H](O)[C@H](O)[C@H]1O [Compound 10, (E)-4-(5-nitro-1H-indol-3-yl)-1-((2S,3R,4R,5S,6R)-3,4,5-trihydroxy-6-(hydroxymethyl)tetrahydro-2H-pyran-2-yl)but-3-en-2-one] | 91.40 ± 10.38 | 84.49 ± 6.74 | 85.37 ± 14.16 |  |  | 
O=C(/C=C/c1c[nH]c2ccc(Br)cc12)C[C@@H]1O[C@H](CO)[C@@H](O)[C@H](O)[C@H]1O [Compound 11, (E)-4-(5-bromo-1H-indol-3-yl)-1-((2S,3R,4R,5S,6R)-3,4,5-trihydroxy-6-(hydroxymethyl)tetrahydro-2H-pyran-2-yl)but-3-en-2-one] |  |  |  | 100 ± 23 | 100 ± 8.93 | 108 ± 2.89
O=C(/C=C/c1c[nH]c2ccc(Cl)cc12)C[C@@H]1O[C@H](CO)[C@@H](O)[C@H](O)[C@H]1O [Compound 12, (E)-4-(5-chloro-1H-indol-3-yl)-1-((2S,3R,4R,5S,6R)-3,4,5-trihydroxy-6-(hydroxymethyl)tetrahydro-2H-pyran-2-yl)but-3-en-2-one] |  |  |  | 79.2 ± 8.51 | 89.8 ± 8.75 | 74.8 ± 7.02
O=C(/C=C/c1c[nH]c2ccccc12)C[C@@H]1O[C@H](CO)[C@H](O)[C@H](O)[C@H]1O [Compound 13, (E)-4-(1H-indol-3-yl)-1-((2S,3R,4R,5R,6R)-3,4,5-trihydroxy-6-(hydroxymethyl)tetrahydro-2H-pyran-2-yl)but-3-en-2-one] |  |  |  | 97.6 ± 2.25 | 94.2 ± 1.96 | 84.2 ± 9.22
O=C(/C=C/c1c[nH]c2ccc(Br)cc12)C[C@@H]1O[C@H](CO)[C@H](O)[C@H](O)[C@H]1O [Compound 15, (E)-4-(5-bromo-1H-indol-3-yl)-1-((2S,3R,4R,5R,6R)-3,4,5-trihydroxy-6-(hydroxymethyl)tetrahydro-2H-pyran-2-yl)but-3-en-2-one] |  |  |  | 125 ± 3.51 | 113 ± 23.9 | 67.5 ± 17.7
O=C(/C=C/c1c[nH]c2ccc(Cl)cc12)C[C@@H]1O[C@H](CO)[C@H](O)[C@H](O)[C@H]1O [Compound 16, (E)-4-(5-chloro-1H-indol-3-yl)-1-((2S,3R,4R,5R,6R)-3,4,5-trihydroxy-6-(hydroxylmethyl)tetrahydro-2H-pyran-2-yl)but-3-en-2-one] |  |  |  | 75 ± 14.3 | 89.6 ± 12.9 | 56.7 ± 17.8
O=C(/C=C/c1c[nH]c2ccccc12)C[C@@H]1O[C@H](CO)[C@@H](O)[C@H](O)[C@@H]1O [Compound 17, (E)-4-(1H-indol-3-yl)-1-((2S,3S,4R,5S,6R)-3,4,5-trihydroxy-6-(hydroxymethyl)tetrahydro-2H-pyran-2-yl)but-3-en-2-one] |  |  |  | 84.1 ± 4.09 | 80.5 ± 2.58 | 79.4 ± 10.4
O=C(/C=C/c1c[nH]c2ccc([N+](=O)[O-])cc12)C[C@@H]1O[C@H](CO)[C@@H](O)[C@H](O)[C@H]1O [Compound 18, (E)-4-(5-nitro-1H-indol-3-yl)-1-((2S,3R,4R,5S,6R)-3,4,5-trihydroxy-6-(hydroxylmethyl)tetrahydro-2H-pyran-2-yl) but-3-en-2-one] |  |  |  | 71.7 ± 28.4 | 78.5 ± 6.73 | 69.8 ± 20.4
OC[C@H]1O[C@@H](CC2=NNC(c3c[nH]c4ccccc34)C2)[C@H](O)[C@@H](O)[C@@H]1O (stereo partly drawn) [Compound 21, (2S,3R,4R,5S,6R)-2-((5-(1H-indol-3-yl)-4,5-dihydro-1H-pyrazol-3-yl)methyl)-6-(hydroxy-methyl)tetrahydro-2H-pyran-3,4,5-triol] |  |  |  | 73.5 ± 2.43 | 76.8 ± 2.43 | 75 ± 2.62
O=[N+]([O-])c1ccc2[nH]cc(C3CC(C[C@@H]4O[C@H](CO)[C@@H](O)[C@H](O)[C@H]4O)=NN3)c2c1 (stereo partly drawn) [Compound 22, (2R,3S,4R,5R,6S)-2-(hydroxymethyl)-6-((5-(5-nitro-1H-indol-3-yl)-4,5-dihydro-1H-pyrazol-3-yl)methyl)tetrahydro-2H-pyran-3,4,5-triol] |  |  |  | 70.4 ± 13 | 68.6 ± 11.1 | 70.3 ± 6.17
OC[C@H]1O[C@@H](CC2=NNC(c3c[nH]c4ccc(Br)cc34)C2)[C@H](O)[C@@H](O)[C@@H]1O (stereo partly drawn) [Compound 23, (2 S,3 R,4 R,5 S,6 R)-2-((5-(5-bromo-1H-indol-3-yl)-4,5-dihydro-1H-pyrazol-3-yl)methyl)-6-(hydroxymethyl)tetrahydro-2H-pyran-3,4,5-triol] |  |  |  | 105 ± 11.3 | 88.8 ± 2.22 | 81.5 ± 5.45
OC[C@H]1O[C@@H](CC2=NNC(c3c[nH]c4ccc(Cl)cc34)C2)[C@H](O)[C@@H](O)[C@@H]1O (stereo partly drawn) [Compound 24, (2 S,3 R,4 R,5 S,6 R)-2-((5-(5-chloro-1H-indol-3-yl)-4,5-dihydro-1H-pyrazol-3-yl)methyl)-6-(hydroxymethyl)tetrahydro-2H-pyran-3,4,5-triol] |  |  |  | 82.2 ± 3.5 | 77.5 ± 8.96 | 77.7 ± 2.56
O=[N+]([O-])c1ccc2[nH]cc(C3CC(C[C@@H]4O[C@H](CO)[C@H](O)[C@H](O)[C@H]4O)=NN3)c2c1 (stereo partly drawn) [Compound 26, (2 S,3 R,4 R,5 R,6 R)-2-((5-(5-nitro-1H-indol-3-yl)-4,5-dihydro-1H-pyrazol-3-yl)methyl)-6-(hydroxymethyl)tetrahydro-2H-pyran-3,4,5-triol] |  |  |  | 101 ± 9.67 | 98.25 ± 0.34 | 99.5 ± 1.88
OC[C@H]1O[C@@H](CC2=NNC(c3c[nH]c4ccc(Br)cc34)C2)[C@H](O)[C@@H](O)[C@H]1O (stereo partly drawn) [Compound 27, (2 S,3 R,4 R,5 R,6 R)-2-((5-(5-bromo-1H-indol-3-yl)-4,5-dihydro-1H-pyrazol-3-yl)methyl)-6-(hydroxymethyl)tetrahydro-2H-pyran-3,4,5-triol] |  |  |  | 90 ± 7.7 | 90.8 ± 7.09 | 97.7 ± 10.1
OC[C@H]1O[C@@H](CC2=NNC(c3c[nH]c4ccc(Cl)cc34)C2)[C@H](O)[C@@H](O)[C@H]1O (stereo partly drawn) [Compound 28, (2 S,3 R,4 R,5 R,6 R)-2-((5-(5-chloro-1H-indol-3-yl)-4,5-dihydro-1H-pyrazol-3-yl)methyl)-6-(hydroxymethyl)tetrahydro-2H-pyran-3,4,5-triol] |  |  |  | 99.5 ± 10.2 | 95.2 ± 13.6 | 63.4 ± 17.5
OC[C@H]1O[C@@H](CC2=NNC(c3c[nH]c4ccccc34)C2)[C@@H](O)[C@@H](O)[C@@H]1O (stereo partly drawn) [Compound 29, (2 S,3 S,4 R,5 S,6 R)-2-((5-(1H-indol-3-yl)-4,5-dihydro-1H-pyrazol-3-yl)methyl)-6-(hydroxy-methyl)tetrahydro-2H-pyran-3,4,5-triol] |  |  |  | 82.2 ± 7.65 | 76.6 ± 6.58 | 73.5 ± 8.45
O=[N+]([O-])c1ccc2[nH]cc(C3CC(C[C@@H]4O[C@H](CO)[C@@H](O)[C@H](O)[C@@H]4O)=NN3)c2c1 (stereo partly drawn) [Compound 30, (2 S,3 S,4 R,5 S,6 R)-2-((5-(5-nitro-1H-indol-3-yl)-4,5-dihydro-1H-pyrazol-3-yl)methyl)-6-(hydroxymethyl)tetrahydro-2H-pyran-3,4,5-triol] |  |  |  | 93.8 ± 5.85 | 92.1 ± 8 | 88 ± 1.1
OC[C@H]1O[C@@H](CC2=NNC(c3c[nH]c4ccc(Br)cc34)C2)[C@@H](O)[C@@H](O)[C@@H]1O (stereo partly drawn) [Compound 31, (2 S,3 S,4 R,5 S,6 R)-2-((5-(5-bromo-1H-indol-3-yl)-4,5-dihydro-1H-pyrazol-3-yl)methyl)-6-(hydroxymethyl)tetrahydro-2H-pyran-3,4,5-triol] |  |  |  | 91.4 ± 3.62 | 90.1 ± 6.77 | 87.6 ± 6.27
OC[C@H]1O[C@@H](CC2=NNC(c3c[nH]c4ccc(Cl)cc34)C2)[C@@H](O)[C@@H](O)[C@@H]1O (stereo partly drawn) [Compound 32, (2 S,3 S,4 R,5 S,6 R)-2-((5-(5-chloro-1H-indol-3-yl)-4,5-dihydro-1H-pyrazol-3-yl)methyl)-6-(hydroxymethyl)tetrahydro-2H-pyran-3,4,5-triol] |  |  |  | 74.6 ± 4.7 | 78.5 ± 4.44 | 66.5 ± 7.27
OC[C@H]1O[C@@H](Cc2cc(-c3c[nH]c4ccccc34)on2)[C@H](O)[C@@H](O)[C@@H]1O [Compound 33, (2 S,3 R,4 R,5 S,6 R)-2-((5-(1H-indol-3-yl)isoxazol-3-yl)methyl)-6-(hydroxymethyl) tetrahydro-2H-pyran-3,4,5-triol] |  |  |  | 104 ± 12.7 | 106 ± 7.4 | 92.6 ± 15.2
OC[C@H]1O[C@@H](Cc2cc(-c3c[nH]c4ccc(Br)cc34)on2)[C@H](O)[C@@H](O)[C@@H]1O [Compound 35, (2 S,3 R,4 R,5 S,6 R)-2-((5-(5-bromo-1H-indol-3-yl)isoxazol-3-yl)methyl)-6-(hydroxy-methyl)tetrahydro-2H-pyran-3,4,5-triol] |  |  |  | 95.5 ± 4.91 | 95.3 ± 3.6 | 93.9 ± 9.08
